Reference: patent US20260364080A1, “PYRAZOLO-PYRIMIDINONE COMPOUNDS FOR USE IN METHODS OF INHIBITING WEE1 A KINASE” (Acrivon Therapeutics, Inc., priority 2023, published 2026)

Key:
[1] = molecular target: T1, Wee1A kinase (CDK1 Tyr15 phosphorylation in ACHN renal cell carcinoma cells) (Homo sapiens, UniProt P30291); assay: High-content imaging of pCdk1 Y15, Wee1A kinase target engagement in ACHN cells; format: cell-based; details: 4 h treatment, nuclear positivity for pCdk1 Y15 vs DMSO control, read-out: CDK1 Tyr15 Phosphorylation EC50
T1 construct: pCDK1 Tyr15 immunofluorescence read-out
T1 sequence (P30291 whole entry): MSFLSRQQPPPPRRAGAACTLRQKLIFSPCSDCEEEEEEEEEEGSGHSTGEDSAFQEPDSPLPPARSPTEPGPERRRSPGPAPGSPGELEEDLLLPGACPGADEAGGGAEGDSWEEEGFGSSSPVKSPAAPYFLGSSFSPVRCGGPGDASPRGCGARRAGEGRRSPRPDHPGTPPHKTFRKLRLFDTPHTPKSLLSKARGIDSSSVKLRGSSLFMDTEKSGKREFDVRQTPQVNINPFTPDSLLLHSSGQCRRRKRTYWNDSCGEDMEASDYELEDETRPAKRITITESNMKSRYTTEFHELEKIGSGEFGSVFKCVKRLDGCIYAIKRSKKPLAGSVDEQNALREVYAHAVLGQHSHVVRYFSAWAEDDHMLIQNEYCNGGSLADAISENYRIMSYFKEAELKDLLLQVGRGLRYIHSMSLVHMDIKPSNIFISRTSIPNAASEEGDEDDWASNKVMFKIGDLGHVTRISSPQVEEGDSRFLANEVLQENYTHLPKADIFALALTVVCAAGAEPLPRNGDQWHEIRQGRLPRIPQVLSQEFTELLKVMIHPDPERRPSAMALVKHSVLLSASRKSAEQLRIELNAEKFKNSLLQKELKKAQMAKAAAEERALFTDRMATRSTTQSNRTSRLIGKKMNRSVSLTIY
Outline: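 ACHN cells exposed to compound for 4 h over 7–5,000 nM or 0.3–200 nM, then fixed and immunostained for pCDK1 Y15 with DAPI nuclear counterstain. The percentage of pCdk1 Y15 nucleus-positive cells relative to DMSO control was imaged per well; EC50 from dose-response curves.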

[2] = molecular target: T2, Myt1 kinase (recombinant PMYT-1) (Homo sapiens, UniProt Q99640); assay: Myt1 kinase binding assay (LanthaScreen Eu Kinase Binding Assay); details: 3 nM tracer 178, 2.5 nM PMYT-1, 1 nM Eu-labeled antibody; read-out: Myt1 kinase Binding IC50
T2 construct: full length PMYT-1 was expressed by baculovirus in insect cells; purchased Invitrogen A30984; host or cells: insect cells (baculovirus)
T2 sequence (Q99640 1-499): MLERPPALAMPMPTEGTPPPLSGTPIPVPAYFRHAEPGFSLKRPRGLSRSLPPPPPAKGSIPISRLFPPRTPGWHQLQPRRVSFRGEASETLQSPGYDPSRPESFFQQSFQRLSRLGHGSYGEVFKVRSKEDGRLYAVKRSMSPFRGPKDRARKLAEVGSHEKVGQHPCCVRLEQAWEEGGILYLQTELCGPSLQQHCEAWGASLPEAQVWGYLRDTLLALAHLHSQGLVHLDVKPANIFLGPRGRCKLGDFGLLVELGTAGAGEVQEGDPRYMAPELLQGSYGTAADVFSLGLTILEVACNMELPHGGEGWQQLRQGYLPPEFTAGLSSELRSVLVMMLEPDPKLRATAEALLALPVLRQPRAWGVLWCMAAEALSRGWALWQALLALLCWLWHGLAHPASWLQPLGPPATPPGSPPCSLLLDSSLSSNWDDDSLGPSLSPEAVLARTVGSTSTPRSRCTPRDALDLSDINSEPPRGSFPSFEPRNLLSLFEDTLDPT
Outline: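 The binding affinity of compounds for Myt1 kinase was measured with a LanthaScreen Europium (Eu) Kinase Binding Assay, a time-resolved FRET format in which test compounds compete against a labeled kinase tracer, and the results were expressed as IC50 values describing compound binding to Myt1.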

[3] = molecular target: T3, recombinant human Wee1A kinase (Homo sapiens, UniProt P30291); assay: Wee1A kinase binding assay (LanthaScreen Eu time-resolved FRET); details: 30 nM tracer 178, 5 nM Wee1A kinase, 2 nM Eu-labeled antibody; 60 minutes at room temperature; read-out: Wee1A kinase Binding IC50
T3 construct: full length Wee1 kinase was expressed by baculovirus in insect cells; purchased Invitrogen PV3817; host or cells: insect cells (baculovirus)
T3 sequence (P30291 whole entry): as the sequence (P30291 whole entry) above
Outline: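 Full-length, baculovirus-expressed GST-tagged Wee1A (5 nM) was mixed with 2 nM Eu-anti-GST antibody, 30 nM kinase tracer 178 and compound (1% DMSO). Buffer was 50 mM HEPES pH 7.5, 10 mM MgCl2, 1 mM EGTA, 0.01% Brij-35, incubated 60 min at room temperature. TR-FRET 665/615 nm emission ratios from duplicates were curve-fitted.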

[4] = molecular target: T4, Myt1 kinase (CDK1 Thr14 phosphorylation in ACHN renal cell carcinoma cells) (Homo sapiens, UniProt Q99640); assay: AlphaLISA assay, Myt1 kinase target engagement (phospho-CDK1 Thr14) in ACHN cells; format: cell-based; details: ACHN cells (marked *); 4 h treatment
T4 construct: pCDK1 Thr14 AlphaLISA read-out
T4 sequence (Q99640 1-499): T2 sequence (Q99640 1-499)
Experimental: Each of an ACHN renal cell carcinoma cell line (ATCC) and a DAOY medulloblastoma cell line, and an A427 lung cancer line were cultured in Minimum Essential Medium Eagle supplemented with 10% fetal calf serum (Sigma), 1% Penicillin-Streptomycin and 10 mM HEPES buffer (HyClone). Cell cultures were kept in a humidified incubator at 37 °C and 5% CO2. Cells were routinely tested for Mycoplasma contamination.
For target engagement assessment of Myt1 kinase inhibition, quantification of Cdk1 phosphorylated on threonine 14 was detected using the AlphaLISA® SureFire® Ultra™ Human Phospho-CDK1 (Thr14) assay (Perkin Elmer). DAOY or ACHN cells were seeded into tissue culture treated 96-well plates (VWR) to a density of 10,000 or 20,000 cells per well respectively. 24 h post seeding cells were treated for 4 h with compounds at concentrations ranging from 7 to 5000 nM. Cells were washed with PBS and lysed in 50 μl AlphaLISA lysis buffer before freezing at −80 C. Ten ul of the lysate was transferred to 384 well plates and incubated with AlphaLISA donor and acceptor beads according to the manufacturer's instructions. Dose response curves and EC50 values were calculated and visualized using GraphPad Prism version 9. Target engagement for Myt1 kinase can also be measured using the same AlphaLISA assay in OVCAR3 cells, an ovarian cancer cell line. NIH:OVCAR-3 (OVCAR3) cells are cultured in RPMI-1640 medium supplemented with 0.01 mg/ml insulin, 20% FBS, 1% Penicillin-Streptomycin and 10 mM HEPES buffer. 14,000 cells per well are seeded into 96 well tissue culture plates in full medium. Twenty-four hours post seeding, cells are treated with compound for 4 hours at concentrations ranging from 0.017 nM to 1000 nM.

ACHN cells = assay: Cell Titer Glo viability assay, ACHN cells; format: cell-based; details: Homo sapiens, 144 h, absolute EC50
Outline: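 Cells grown in MEM with 10% FCS were seeded at 500 (A427), 400 (ACHN) or 250 (DAOY) per well and treated the next day with compound at 17 to 10 000 nM. Viability relative to untreated control was read at 144 h by CellTiter-Glo 2.0.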

[5] = molecular target: T5, Myt1 kinase (CDK1 Thr14 phosphorylation in DAOY medulloblastoma cells) (Homo sapiens, UniProt Q99640); assay: AlphaLISA assay, Myt1 kinase target engagement (phospho-CDK1 Thr14) in DAOY cells; format: cell-based; details: 4 h treatment, read-out: CDK1 Thr14 Phosphorylation EC50
T5 construct: pCDK1 Thr14 AlphaLISA read-out
T5 sequence (Q99640 1-499): T2 sequence (Q99640 1-499)
Outline: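 Cells seeded at 10,000 (DAOY) or 20,000 (ACHN) per well, treated 24 h later for 4 h with compound at 7–5000 nM. Lysates analysed by AlphaLISA SureFire Ultra phospho-CDK1 (Thr14) with donor/acceptor beads; EC50 from dose-response curves.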

SMILES | EC50 [1] [nM] | IC50 [2] [nM] | IC50 [3] [nM] | EC50 [4] [nM] | EC50 (ACHN cells) [nM] | EC50 [5] [nM]
C=CCn1c(=O)c2cnc(Nc3ccc4c(cnn4C)c3)nc2n1-c1cccc(OC2CCCN(C)CC2)n1 (single isomer, unassigned) [Compound 374] | < 100 | 20 to 100 | < 10 | 500 to 1000 | – | –
C=CCn1c(=O)c2cnc(Nc3ccc4ccncc4c3)nc2n1-c1cccc(OC2CCN(C)CC2)n1 [Compound 326, 2-allyl-6-(7-isoquinolylamino)-1-[6-(1-methyl-4-piperidyloxy)-2-pyridyl]-1,2-dihydro-3H-1,2,5,7-tetraazainden-3-one] | < 100 | 20 to 100 | < 10 | 200 to 500 | – | –
C=CCn1c(=O)c2cnc(Nc3ccc4[nH]ncc4c3)nc2n1-c1cccc(OC2CCN(C)CC2)n1 [Compound 238, 6-((1H-indazol-5-yl)amino)-2-allyl-1-(6-((1-methylpiperidin-4-yl)oxy)pyridin-2-yl)-1,2-dihydro-3H-pyrazolo[3,4-d]pyrimidin-3-one] | < 100 | 20 to 100 | < 10 | – | ≤ 100 | 200 to 500
C=CCn1c(=O)c2cnc(Nc3ccc4cnccc4c3)nc2n1-c1cccc(OC2CCNCC2)n1 [Compound 244, 2-allyl-6-(6-isoquinolylamino)-1-[6-(4-piperidyloxy)-2-pyridyl]-1,2-dihydro-3H-1,2,5,7-tetraazainden-3-one] | < 100 | 20 to 100 | < 10 | – | 100 to 500 | 500 to 1000
C=CCn1c(=O)c2cnc(Nc3ccc(OC)nc3)nc2n1-c1cccc(OC2CCN(C)CC2)n1 [Compound 250, 2-allyl-6-(6-methoxy-3-pyridylamino)-1-[6-(1-methyl-4-piperidyloxy)-2-pyridyl]-1,2-dihydro-3H-1,2,5,7-tetraazainden-3-one] | < 100 | 20 to 100 | < 10 | – | ≤ 100 | 200 to 500
C=CCn1c(=O)c2cnc(Nc3ccc4nn(C)cc4c3)nc2n1-c1cccc(OC2CCN(C)CC2)n1 [Compound 273, 2-allyl-6-((2-methyl-2H-indazol-5-yl)amino)-1-(6-((1-methylpiperidin-4-yl)oxy)pyridin-2-yl)-1,2-dihydro-3H-pyrazolo[3,4-d]pyrimidin-3-one] | < 100 | < 20 | < 10 | – | ≤ 100 | < 200
C=CCn1c(=O)c2cnc(Nc3ccc4c(cnn4C)c3)nc2n1-c1ccnc(NC2CCN(C)CC2)n1 [Compound 313, 2-allyl-6-(1-methyl-1H-indazol-5-ylamino)-1-[2-(1-methyl-4-piperidylamino)-4-pyrimidinyl]-1,2-dihydro-3H-1,2,5,7-tetraazainden-3-one] | < 100 | 20 to 100 | < 10 | – | ≤ 100 | > 1000
C=CCn1c(=O)c2cnc(Nc3ccc4c(cnn4C)c3)nc2n1-c1cccc(O[C@H]2CCNC2)n1 [Compound 100, 1-{6-[(S)-3-pyrrolidinyloxy]-2-pyridyl}-2-allyl-6-(1-methyl-1H-indazol-5-ylamino)-1,2-dihydro-3H-1,2,5,7-tetraazainden-3-one] | 100 to 500 | < 20 | < 10 | – | 100 to 500 | > 1000
C=CCn1c(=O)c2cnc(Nc3ccc(OCC4CC4)cc3)nc2n1-c1cccc(OC2CCN(C)CC2)n1 [Compound 258, 2-allyl-6-((4-(cyclopropylmethoxy)phenyl)amino)-1-(6-((1-methylpiperidin-4-yl)oxy)pyridin-2-yl)-1,2-dihydro-3H-pyrazolo[3,4-d]pyrimidin-3-one] | < 100 | < 20 | < 10 | – | ≤ 100 | 200 to 500

Further lines, results first:

EC50 [1] [nM] | IC50 [2] [nM] | IC50 [3] [nM] | EC50 [4] [nM] | EC50 (ACHN cells) [nM] | EC50 [5] [nM] | SMILES
< 100 | < 20 | < 10 | < 200 | – | – | C=CCn1c(=O)c2cnc(Nc3cnc4c(cnn4C(C)C)c3)nc2n1-c1cccc(OC2CCN(C)CC2)n1 [Compound 406, 2-allyl-6-((1-isopropyl-1H-pyrazolo[3,4-b]pyridin-5-yl)amino)-1-(6-((1-methylpiperidin-4-yl)oxy)pyridin-2-yl)-1,2-dihydro-3H-pyrazolo[3,4-d]pyrimidin-3-one]
– | 20 to 100 | < 10 | 500 to 1000 | – | – | [2H]C([2H])([2H])N1CCC(Oc2nccc(-n3c4nc(Nc5ccc6c(cnn6C)c5)ncc4c(=O)n3CC=C)n2)CC1 [Compound 383, 2-allyl-6-(1-methyl-1H-indazol-5-ylamino)-1-(2-{1-[(^2H3)methyl]-4-piperidyloxy}-4-pyrimidinyl)-1,2-dihydro-3H-1,2,5,7-tetraazainden-3-one]
< 100 | < 20 | < 10 | > 1000 | – | – | C=CCn1c(=O)c2cnc(Nc3ccc4nn(C(C)(C)C)cc4c3)nc2n1-c1cccc(OC2CCNCC2)n1 [Compound 395, 2-allyl-6-((2-(tert-butyl)-2H-indazol-5-yl)amino)-1-(6-(piperidin-4-yloxy)pyridin-2-yl)-1,2-dihydro-3H-pyrazolo[3,4-d]pyrimidin-3-one]
< 100 | 20 to 100 | < 10 | – | 100 to 500 | 200 to 500 | C=CCn1c(=O)c2cnc(Nc3ccc(C#N)c(C)c3)nc2n1-c1cccc(OC2CCNCC2)n1 [Compound 293, 5-{2-allyl-3-oxo-1-[6-(4-piperidyloxy)-2-pyridyl]-1,2-dihydro-3H-1,2,5,7-tetraazainden-6-ylamino}-2-toluonitrile]
< 100 | < 20 | < 10 | – | ≤ 100 | 200 to 500 | C=CCn1c(=O)c2cnc(Nc3ccc(OCC)cc3)nc2n1-c1cccc(OC2CCN(C)CC2)n1 [Compound 255, 2-allyl-6-((4-ethoxyphenyl)amino)-1-(6-((1-methylpiperidin-4-yl)oxy)pyridin-2-yl)-1,2-dihydro-3H-pyrazolo[3,4-d]pyrimidin-3-one]
